pIC50: −log10 of the molar value. Active and inactive are the calls of the source. The calls are words filed in the database; no cut-off is given here.
How the values were obtained:
[1] = Inhibition of wild type HIV-1 clade B NL4-3 Gag polyprotein SP1 infected in human MT4 cells; type: cell-based; settings: Human immunodeficiency virus 1, clade B NL4-3, MT4
[2] = Inhibition of bevirimat-resistant HIV1 clade B NL4-3 CA-SP1 V370A mutant infected in human MT4 cells; type: cell-based; settings: Human immunodeficiency virus 1, clade B NL4-3, MT4
[3] = Inhibition of bevirimat-resistant HIV1 clade B NL4-3 CA-SP1 T371A mutant infected in human MT4 cells; type: cell-based; settings: Human immunodeficiency virus 1, clade B NL4-3, MT4
[4] = Inhibition of bevirimat-resistant HIV1 clade B NL4-3 CA-SP1 Q369H mutant infected in human MT4 cells; type: cell-based; settings: Human immunodeficiency virus 1, clade B NL4-3, MT4
[5] = Inhibition of bevirimat-resistant HIV-1 clade B isolate CC1/85 CA-SP1 V370A mutant infected in human PBMC measured after 7 days by scintillation counting method; settings: Human immunodeficiency virus 1, clade B isolate CC1/85, 168 h
[6] = test system: Human immunodeficiency virus 1; assay: Ratio of compound effect in presence of 40% human serum to compound effect in absence of serum for antiviral activity against HIV1 by cell based assay; type: functional
[7] = Inhibition of bevirimat-resistant HIV-1 clade A isolate I-2496 V370A mutant infected in human PBMC after 7 days by scintillation counting method; settings: Human immunodeficiency virus 1, clade A isolate I-2496, 168 h
[8] = Inhibition of bevirimat-resistant HIV-1 clade B isolate ASJM108 Gag V370A mutant infected in human PBMC after 7 days by scintillation counting method; settings: Human immunodeficiency virus 1, clade B isolate ASJM108, 168 h
[9] = test system: Human immunodeficiency virus 1; assay: Inhibition of HIV1 Gag CA-SP1 cleavage infected in human PBMC at 10 uM measured after 8 days post infection by Western blot analysis
[10] = test system: Human immunodeficiency virus 1; assay: Antiviral activity against HIV1 isolate 96THNP1538 infected in human PBMC; type: functional; settings: Human immunodeficiency virus 1, isolate 96THNP1538
[11] = test system: Human immunodeficiency virus 1; assay: Antiviral activity against HIV1 isolate 91BR014 infected in human PBMC; type: functional; settings: Human immunodeficiency virus 1, isolate 91BR014
[12] = Cytotoxicity against human MT4 cells; type: cell-based
[13] = test system: Human immunodeficiency virus 1; assay: Antiviral activity against HIV1 isolate 96USNG031 infected in human PBMC; type: functional; settings: Human immunodeficiency virus 1, isolate 96USNG031
[14] = test system: Human immunodeficiency virus 1; assay: Inhibition of HIV1 Gag CA-SP1 cleavage infected in human PBMC at 0.0001 to 10 uM measured after 8 days post infection by Western blot analysis
[15] = test system: Human immunodeficiency virus 1; assay: Antiviral activity against HIV1 isolate 00KEKR1008 infected in human PBMC; type: functional; settings: Human immunodeficiency virus 1, isolate 00KEKR1008
[16] = test system: Human immunodeficiency virus 1; assay: Antiviral activity against HIV1 isolate 01ET188 infected in human PBMC; type: functional; settings: Human immunodeficiency virus 1, isolate 01ET188

CC(C)C1=C2[C@H]3CC[C@@H]4[C@@]5(C)CC[C@H](OC(=O)CC(C)(C)C(=O)O)C(C)(C)[C@@H]5CC[C@@]4(C)[C@]3(C)CC[C@@]2(C(=O)C(=O)NC(C)(C)c2ccccc2)CC1=O
pIC50 [1]: 7.74 | pIC50 [2]: 7.72

CC(C)C1=C2[C@H]3CC[C@@H]4[C@@]5(C)CC[C@H](OC(=O)CC(C)(C)C(=O)O)C(C)(C)[C@@H]5CC[C@@]4(C)[C@]3(C)CC[C@@]2(C(=O)C(=O)N[C@@H](C)c2ccc(Cl)cc2)CC1=O
pIC50 [1]: 7.41 | pIC50 [3]: 7.72 | pIC50 [2]: 6.32 | pIC50 [4]: 7.22

CC(C)C1=C2[C@H]3CC[C@@H]4[C@@]5(C)CC[C@H](OC(=O)CC(C)(C)C(=O)O)C(C)(C)[C@@H]5CC[C@@]4(C)[C@]3(C)CC[C@@]2(C(=O)C(=O)NC2(c3ccc(Cl)cc3)CCCC2)CC1=O
pIC50 [1]: 7.18 | pIC50 [3]: 7.48 | pIC50 [2]: 6.96 | pIC50 [4]: 7.00

CC(C)C1=C2[C@H]3CC[C@@H]4[C@@]5(C)CC[C@H](OC(=O)CC(C)(C)C(=O)O)C(C)(C)[C@@H]5CC[C@@]4(C)[C@]3(C)CC[C@@]2(C(=O)C(=O)NC(C)(C)c2ccc(Cl)cc2)CC1=O
pIC50 [1]: 7.72 | pIC50 [3]: 7.96 | pIC50 [2]: 7.77 | pIC50 [4]: 7.77

CC[C@@H](NC(=O)C(=O)[C@@]12CC[C@]3(C)[C@H](CC[C@@H]4[C@@]5(C)CC[C@H](OC(=O)CC(C)(C)C(=O)O)C(C)(C)[C@@H]5CC[C@]43C)C1=C(C(C)C)C(=O)C2)c1ccc(Cl)cc1
pIC50 [1]: 7.55 | pIC50 [3]: 7.92 | pIC50 [2]: 7.19 | pIC50 [4]: 7.13

CC(C)C1=C2[C@H]3CC[C@@H]4[C@@]5(C)CC[C@H](OC(=O)CC(C)(C)C(=O)O)C(C)(C)[C@@H]5CC[C@@]4(C)[C@]3(C)CC[C@@]2(C(=O)C(=O)N2CCC2)CC1=O
pIC50 [1]: 5.25 | pIC50 [2]: < 5.00

CC(C)C1=C2[C@H]3CC[C@@H]4[C@@]5(C)CC[C@H](OC(=O)CC(C)(C)C(=O)O)C(C)(C)[C@@H]5CC[C@@]4(C)[C@]3(C)CC[C@@]2(C(=O)C(=O)O)CC1=O
pIC50 [1]: < 5.00

CC(C)C1=C2[C@H]3CC[C@@H]4[C@@]5(C)CC[C@H](OC(=O)CC(C)(C)C(=O)O)C(C)(C)[C@@H]5CC[C@@]4(C)[C@]3(C)CC[C@@]2(C(=O)C(=O)NC2CCCCC2)CC1=O
pIC50 [1]: 7.55 | pIC50 [2]: 6.48

COc1ccc(CNC(=O)C(=O)[C@@]23CC[C@]4(C)[C@H](CC[C@@H]5[C@@]6(C)CC[C@H](OC(=O)CC(C)(C)C(=O)O)C(C)(C)[C@@H]6CC[C@]54C)C2=C(C(C)C)C(=O)C3)cc1
pIC50 [1]: 7.00 | pIC50 [2]: 5.10

CC(C)C1=C2[C@H]3CC[C@@H]4[C@@]5(C)CC[C@H](OC(=O)CC(C)(C)C(=O)O)C(C)(C)[C@@H]5CC[C@@]4(C)[C@]3(C)CC[C@@]2(C(=O)C(=O)NCc2ccc(Cl)cc2Cl)CC1=O
pIC50 [1]: 7.43 | pIC50 [2]: 6.71

CC(C)C1=C2[C@H]3CC[C@@H]4[C@@]5(C)CC[C@H](OC(=O)CC(C)(C)C(=O)O)C(C)(C)[C@@H]5CC[C@@]4(C)[C@]3(C)CC[C@@]2(C(=O)C(=O)NCc2cccs2)CC1=O
pIC50 [1]: 7.68 | pIC50 [2]: 5.79

C=C(C)[C@@H]1CC[C@]2(C(=O)O)CC[C@]3(C)[C@H](CC[C@@H]4[C@@]5(C)CC[C@H](OC(=O)CC(C)(C)C(=O)O)C(C)(C)[C@@H]5CC[C@]43C)[C@@H]12 [BEVIRIMAT]
pIC50 [1]: 6.57 | pIC50 [5]: < 5.00 | pIC50 [3]: 6.60 | Ratio [6]: 52 | pIC50 [7]: < 5.40 | pIC50 [8]: < 5.00 | pIC50 [2]: 5.19 | inhibition [9]: Active | pIC50 [4]: 6.42

CC(C)C1=C2[C@H]3CC[C@@H]4[C@@]5(C)CC[C@H](OC(=O)CC(C)(C)C(=O)O)C(C)(C)[C@@H]5CC[C@@]4(C)[C@]3(C)CC[C@@]2(C(=O)C(=O)Nc2ccc(F)cc2)CC1=O
pIC50 [1]: 6.89 | pIC50 [2]: 5.74

CC(C)C1=C2[C@H]3CC[C@@H]4[C@@]5(C)CC[C@H](OC(=O)CC(C)(C)C(=O)O)C(C)(C)[C@@H]5CC[C@@]4(C)[C@]3(C)CC[C@@]2(C(=O)C(=O)NCc2ccccc2Cl)CC1=O
pIC50 [1]: 7.77 | pIC50 [2]: 6.31

CC(C)C1=C2[C@H]3CC[C@@H]4[C@@]5(C)CC[C@H](OC(=O)CC(C)(C)C(=O)O)C(C)(C)[C@@H]5CC[C@@]4(C)[C@]3(C)CC[C@@]2(C(=O)C(=O)NCc2c(Cl)cccc2Cl)CC1=O
pIC50 [1]: 7.07 | pIC50 [2]: 5.97

CC(C)C1=C2[C@H]3CC[C@@H]4[C@@]5(C)CC[C@H](OC(=O)CC(C)(C)C(=O)O)C(C)(C)[C@@H]5CC[C@@]4(C)[C@]3(C)CC[C@@]2(C(=O)C(=O)NCCN2CCCC2)CC1=O
pIC50 [1]: 6.00 | pIC50 [2]: < 5.00

CC(C)C1=C2[C@H]3CC[C@@H]4[C@@]5(C)CC[C@H](OC(=O)CC(C)(C)C(=O)O)C(C)(C)[C@@H]5CC[C@@]4(C)[C@]3(C)CC[C@@]2(C(=O)C(=O)NCc2ccc(Cl)cc2)CC1=O
pIC50 [1]: 7.92 | pIC50 [2]: 7.06

CC(C)C1=C2[C@H]3CC[C@@H]4[C@@]5(C)CC[C@H](OC(=O)CC(C)(C)C(=O)O)C(C)(C)[C@@H]5CC[C@@]4(C)[C@]3(C)CC[C@@]2(C(=O)C(=O)NCC2CCCCC2)CC1=O
pIC50 [1]: 7.96 | pIC50 [2]: 7.57

CC(C)C1=C2[C@H]3CC[C@@H]4[C@@]5(C)CC[C@H](OC(=O)CC(C)(C)C(=O)O)C(C)(C)[C@@H]5CC[C@@]4(C)[C@]3(C)CC[C@@]2(C(=O)C(=O)NCCCN2CCCC2)CC1=O
pIC50 [1]: 5.93 | pIC50 [2]: 5.12

CC(C)C1=C2[C@H]3CC[C@@H]4[C@@]5(C)CC[C@H](OC(=O)CC(C)(C)C(=O)O)C(C)(C)[C@@H]5CC[C@@]4(C)[C@]3(C)CC[C@@]2(C(=O)C(=O)NCc2ccc(C(F)(F)F)cc2)CC1=O
pIC50 [1]: 6.87 | pIC50 [2]: 5.88

Cc1ccc(NC(=O)C(=O)[C@@]23CC[C@]4(C)[C@H](CC[C@@H]5[C@@]6(C)CC[C@H](OC(=O)CC(C)(C)C(=O)O)C(C)(C)[C@@H]6CC[C@]54C)C2=C(C(C)C)C(=O)C3)cc1
pIC50 [1]: 6.60 | pIC50 [2]: 6.18

CC(C)C1=C2[C@H]3CC[C@@H]4[C@@]5(C)CC[C@H](OC(=O)CC(C)(C)C(=O)O)C(C)(C)[C@@H]5CC[C@@]4(C)[C@]3(C)CC[C@@]2(C(=O)C(=O)NCc2cccc(Cl)c2)CC1=O
pIC50 [1]: 7.80 | pIC50 [2]: 6.43

CNC(=O)C(=O)[C@@]12CC[C@]3(C)[C@H](CC[C@@H]4[C@@]5(C)CC[C@H](OC(=O)CC(C)(C)C(=O)O)C(C)(C)[C@@H]5CC[C@]43C)C1=C(C(C)C)C(=O)C2
pIC50 [1]: 5.88 | pIC50 [2]: 5.18

CC(C)C1=C2[C@H]3CC[C@@H]4[C@@]5(C)CC[C@H](OC(=O)CC(C)(C)C(=O)O)C(C)(C)[C@@H]5CC[C@@]4(C)[C@]3(C)CC[C@@]2(C(=O)C(=O)NC2(c3ccc(Cl)cc3)CC2)CC1=O
pIC50 [10]: < 7.22 | pIC50 [1]: 7.77 | pIC50 [5]: 8.30 | pIC50 [11]: < 7.22 | pIC50 [3]: 8.10 | Ratio [6]: 9.7 | pIC50 [7]: 7.85 | CC50 [12]: > 10000 nM | pIC50 [8]: 7.29 | pIC50 [2]: 7.60 | pIC50 [13]: < 7.22 | inhibition [14]: Active | pIC50 [15]: < 7.22 | pIC50 [4]: 7.64 | pIC50 [16]: < 7.22

CC(C)C1=C2[C@H]3CC[C@@H]4[C@@]5(C)CC[C@H](OC(=O)CC(C)(C)C(=O)O)C(C)(C)[C@@H]5CC[C@@]4(C)[C@]3(C)CC[C@@]2(C(=O)C(=O)NC2(c3ccc(Cl)cc3)CCC2)CC1=O
pIC50 [1]: 7.54 | pIC50 [3]: 7.77 | pIC50 [2]: 7.19 | pIC50 [4]: 7.32

CC[C@H](NC(=O)C(=O)[C@@]12CC[C@]3(C)[C@H](CC[C@@H]4[C@@]5(C)CC[C@H](OC(=O)CC(C)(C)C(=O)O)C(C)(C)[C@@H]5CC[C@]43C)C1=C(C(C)C)C(=O)C2)c1ccc(Cl)cc1
pIC50 [1]: 7.27 | pIC50 [3]: 7.59 | pIC50 [2]: 6.43 | pIC50 [4]: 7.21

CC(C)C1=C2[C@H]3CC[C@@H]4[C@@]5(C)CC[C@H](OC(=O)CC(C)(C)C(=O)O)C(C)(C)[C@@H]5CC[C@@]4(C)[C@]3(C)CC[C@@]2(C(=O)C(=O)N[C@H](C)c2ccc(Cl)cc2)CC1=O
pIC50 [1]: 7.74 | pIC50 [3]: 8.30 | pIC50 [2]: 7.60 | pIC50 [4]: 7.60

CC(C)C1=C2[C@H]3CC[C@@H]4[C@@]5(C)CC[C@H](OC(=O)CC(C)(C)C(=O)O)C(C)(C)[C@@H]5CC[C@@]4(C)[C@]3(C)CC[C@@]2(C(=O)C(=O)NCc2ccc(F)cc2)CC1=O
pIC50 [1]: 7.80 | pIC50 [2]: 6.69

CC(C)C1=C2[C@H]3CC[C@@H]4[C@@]5(C)CC[C@H](OC(=O)CC(C)(C)C(=O)O)C(C)(C)[C@@H]5CC[C@@]4(C)[C@]3(C)CC[C@@]2(C(=O)C(=O)NCc2ccncc2)CC1=O
pIC50 [1]: 5.21 | pIC50 [2]: < 5.00
